The term IC50 denotes the concentration that inhibits the measured activity by half.

The target in test [1] is T1, Sodium/glucose cotransporter 2 (Rattus norvegicus, UniProt P53792).
T1 sequence (P53792 whole entry): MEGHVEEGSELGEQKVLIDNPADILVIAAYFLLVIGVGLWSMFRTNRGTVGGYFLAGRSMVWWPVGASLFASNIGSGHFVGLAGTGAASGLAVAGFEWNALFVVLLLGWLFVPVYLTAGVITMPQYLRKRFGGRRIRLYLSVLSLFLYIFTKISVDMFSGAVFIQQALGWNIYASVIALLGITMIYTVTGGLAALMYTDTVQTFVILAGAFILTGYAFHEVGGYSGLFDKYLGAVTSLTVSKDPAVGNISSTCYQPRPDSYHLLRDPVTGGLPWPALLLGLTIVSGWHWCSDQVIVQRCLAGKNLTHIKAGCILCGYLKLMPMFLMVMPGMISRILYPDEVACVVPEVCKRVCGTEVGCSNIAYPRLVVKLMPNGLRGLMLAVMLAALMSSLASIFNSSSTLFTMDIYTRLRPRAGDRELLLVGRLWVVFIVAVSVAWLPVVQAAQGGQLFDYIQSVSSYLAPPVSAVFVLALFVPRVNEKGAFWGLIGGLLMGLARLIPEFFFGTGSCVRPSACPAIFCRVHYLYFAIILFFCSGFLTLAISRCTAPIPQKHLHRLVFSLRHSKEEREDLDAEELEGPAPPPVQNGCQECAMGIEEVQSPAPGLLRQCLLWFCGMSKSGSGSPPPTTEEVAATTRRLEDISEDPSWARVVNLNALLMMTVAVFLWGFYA
The test can be described thus: Inhibition of rat SGLT2 expressed in CHO cells assessed as inhibition of [14C]-alpha-methyl-D-glucopyranoside transport after 60 mins by scintillation counting. The format is cell-based.

Test [2] addresses T2, Sodium/glucose cotransporter 2 (Homo sapiens, UniProt P31639).
T2 sequence (P31639 whole entry): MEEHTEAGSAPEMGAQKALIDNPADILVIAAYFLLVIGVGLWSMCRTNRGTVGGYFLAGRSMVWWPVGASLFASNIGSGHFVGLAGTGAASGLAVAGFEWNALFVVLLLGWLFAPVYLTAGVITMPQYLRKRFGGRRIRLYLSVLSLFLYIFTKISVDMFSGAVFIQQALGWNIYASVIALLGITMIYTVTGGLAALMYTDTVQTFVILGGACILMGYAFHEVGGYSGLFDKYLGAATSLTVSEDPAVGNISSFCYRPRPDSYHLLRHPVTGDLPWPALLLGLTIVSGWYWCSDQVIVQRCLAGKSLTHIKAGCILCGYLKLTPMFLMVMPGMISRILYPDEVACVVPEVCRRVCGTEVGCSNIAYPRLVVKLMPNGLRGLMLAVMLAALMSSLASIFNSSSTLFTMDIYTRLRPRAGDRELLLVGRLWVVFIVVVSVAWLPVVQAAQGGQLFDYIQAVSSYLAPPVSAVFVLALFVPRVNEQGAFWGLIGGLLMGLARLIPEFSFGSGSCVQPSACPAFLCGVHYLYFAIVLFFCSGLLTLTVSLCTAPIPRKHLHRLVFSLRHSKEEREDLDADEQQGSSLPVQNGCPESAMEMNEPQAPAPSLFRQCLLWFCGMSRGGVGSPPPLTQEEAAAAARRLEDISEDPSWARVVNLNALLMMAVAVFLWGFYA
The test can be described thus: Inhibition of human SGLT2 expressed in CHO cells assessed as inhibition of [14C]-alpha-methyl-D-glucopyranoside transport after 60 mins by scintillation counting. The format is cell-based.

`Cn1c(CN2C(=O)CSc3ccc(C(F)(F)F)cc32)nnc1SCc1ccc(Cl)cc1`: the results for the half-maximal inhibitory concentration (IC50) in test [1] and in test [2] were 400 nM and 1400 nM, respectively.
